Measurements: the NIST ThermoML archive (doi:10.1016/j.jct.2005.05.008)
± gives the expanded uncertainty stated by the source.

How the values were obtained:
[1] = an = ratio of the nth substance listed, in mol/kg; details: 101 kPa, Liquid, Vibrating tube method
[2] = 298.15 K; 101.33 kPa; Liquid

CN(C)C=O [dimethylformamide] + CCCC[N+](CCCC)(CCCC)CCCC.[O-][Cl+3]([O-])([O-])[O-]
[1], a2 = 0
Details | mass density [kg/m3]
283.15 K | 958.067 ± 0.27
293.15 K | 948.553 ± 0.27
298.15 K | 943.79 ± 0.27
303.15 K | 939.014 ± 0.27
313.15 K | 929.43 ± 0.26
323.15 K | 919.797 ± 0.26
333.15 K | 910.117 ± 0.26

CN(C)C=O [dimethylformamide] + CCC[N+](CCC)(CCC)CCC.[O-][Cl+3]([O-])([O-])[O-]
[1], a2 = 0
Details | mass density [kg/m3]
283.15 K | 958.067 ± 0.27
293.15 K | 948.553 ± 0.27
298.15 K | 943.79 ± 0.27
303.15 K | 939.014 ± 0.27
313.15 K | 929.43 ± 0.26
323.15 K | 919.797 ± 0.26
333.15 K | 910.117 ± 0.26

CN(C)C=O [dimethylformamide]
Details | mass density [kg/m3]
[2] | 943.792 ± 0.28

CC[N+](CC)(CC)CC.[O-][Cl+3]([O-])([O-])[O-] [tetraethylammonium perchlorate] + CN(C)C=O
mass density [kg/m3], [1]
Details | a1 = 0.02269 | a1 = 0.04218 | a1 = 0.06274 | a1 = 0.08215 | a1 = 0.1147 | a1 = 0.1455 | a1 = 0.1761 | a1 = 0.2062
283.15 K | 959.351 ± 0.27 | 960.443 ± 0.27 | 961.586 ± 0.27 | 962.663 ± 0.27 | 964.449 ± 0.27 | 966.152 ± 0.27 | 967.825 ± 0.27 | 969.465 ± 0.27
293.15 K | 949.863 ± 0.27 | 950.975 ± 0.27 | 952.142 ± 0.27 | 953.234 ± 0.27 | 955.047 ± 0.27 | 956.775 ± 0.27 | 958.473 ± 0.27 | 960.139 ± 0.27
298.15 K | 945.114 ± 0.27 | 946.237 ± 0.27 | 947.409 ± 0.27 | 948.513 ± 0.27 | 950.338 ± 0.27 | 952.082 ± 0.27 | 953.791 ± 0.27 | 955.471 ± 0.27
303.15 K | 940.349 ± 0.27 | 941.482 ± 0.27 | 942.667 ± 0.27 | 943.781 ± 0.27 | 945.623 ± 0.27 | 947.378 ± 0.27 | 949.101 ± 0.27 | 950.793 ± 0.27
313.15 K | 930.795 ± 0.26 | 931.951 ± 0.26 | 933.155 ± 0.26 | 934.288 ± 0.27 | 936.165 ± 0.27 | 937.945 ± 0.27 | 939.7 ± 0.27 | 941.419 ± 0.27
323.15 K | 921.19 ± 0.26 | 922.369 ± 0.26 | 923.599 ± 0.26 | 924.748 ± 0.26 | 926.661 ± 0.26 | 928.473 ± 0.26 | 930.257 ± 0.26 | 932.007 ± 0.26
333.15 K | 911.533 ± 0.26 | 912.731 ± 0.26 | 913.987 ± 0.26 | 915.156 ± 0.26 | 917.106 ± 0.26 | 918.957 ± 0.26 | 920.766 ± 0.26 | 922.55 ± 0.26
